This experiment deals with Human mitochondrial ClpP (hClpP) (Homo sapiens, UniProt Q16740). The experiment can be described thus: peptidase activation. Conditions: activator at 1.5 mM, 200 nM human ClpP, no ATPase partner. The experiment is classed as biochemical.

Structures are written as SMILES. Square brackets hold non-standard residues; d marks the D form. Peptide text beside a SMILES is read from it. * marks the point of attachment. hCha = N[C@@H](CCC1CCCCC1)C(=O)O; Bz = O=C(c1ccccc1)*

Sequence of Human mitochondrial ClpP (hClpP) (Q16740 57-277): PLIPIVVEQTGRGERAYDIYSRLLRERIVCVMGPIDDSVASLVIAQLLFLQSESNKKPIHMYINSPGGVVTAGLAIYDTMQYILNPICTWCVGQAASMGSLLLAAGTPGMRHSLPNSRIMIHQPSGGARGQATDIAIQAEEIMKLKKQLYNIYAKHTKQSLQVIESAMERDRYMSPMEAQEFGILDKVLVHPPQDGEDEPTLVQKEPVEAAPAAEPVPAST

On to `CC[C@H](C)[C@H](NC(=O)[C@H](CCC1CCCCC1)NC(=O)c1ccccc1)C(=O)O` [Bz-ChEtg-Ile] (Bz-[hCha]-Ile-OH), for which the fold activation is recorded as more than 15 times.

(Values after doi:10.1101/2025.02.28.640722v1 (biorxiv, 2025).)
